According to patent US20230136299A1, “TREATMENT OF LIVER FAILURE” (HEPYX LIMITED, priority 2020, published 2023):
“Also recorded” adds a separate entry of the source.

Key:
[1] = system: C57B/6 mice with CCL4 + GalN induced ACLF; assay: CCL4 + galactosamine (GalN) non-inflammatory ACLF mouse model
Experimental: C57B/6 mice were gavaged for 6-weeks with carbon tetrachloride (CC14) 0.5 ml/ml to induce chronic liver injury (n=8 per group). Thereafter, galactosamine (GalN) (1000 mg/kg) was administered to induce a non-inflammatory liver injury and treatment with the RIPK1 inhibitor, RIPA56 3 mg/kg i.p. was initiated every 12-hrs.

[2] = system: rat ACLF model (BDL + LPS); assay: BDL + LPS rat ACLF model; settings: LPS after BDL, TAK-242 10 mg/kg i.p. before and after LPS
[3] = system: C57B/6 mice with CCL4 + LPS induced ACLF; assay: CCL4 + LPS ACLF mouse model; assay type: in vivo; settings: for proliferating (Cyclin A positive) hepatocytes: 5 days treatment
Experimental: Thereafter injection of LPS (Klebsiella, 4 mg/kg, i.p.) served as a second hit to induce organ injury. […] CCL4- Carbontetrachloride; G-CSF - granulocyte colony stimulating factor.
Thereafter injection of LPS (Klebsiella, 4 mg/kg, i.p.) served as a second hit to induce organ injury.
Thereafter injection of LPS (Klebsiella, 4 mg/kg, i.p.) served as a second hit to induce organ injury. […] It majorly regulated the transition from G2 to M phase. […] E) BCL2 is the effector molecule of the STAT3 pathway which carries anti-apoptotic and antibacterial properties. […] Image J was used for image quantification and group comparison was performed by one-way ANOVA and post-hoc Tukey’s multiple comparison mRNA data is delineated as ddCt value. Western blots were performed with protein lysates pooled from all animals per group. G) Liver protein expression of markers of inflammation, cell death and regeneration/senescence (CC14-LPS 24 h treatment model). Liver lysates from 4 randomly selected animals per group were pooled and applied onto one profiler membrane.
Second, due to the conflicting data concerning the therapeutic benefit of G-CSF the present inventors performed pre-clinical studies in well-established rodent models of ACLF in order to clarify the effect of stem cell mobilisation. C57BL/6 Mice were gavaged with carbon tetrachloride (CCL4) for 6 weeks to induce liver fibrosis and subsequently injected with lipopolysaccharide (LPS) to induce tissue injury and organ failure. One hour after LPS injection mice were treated with G-CSF subcutaneously 250 µg/kg once daily for 5 consecutive days (FIG. 1A).
The inventors then tested whether TLR4 inhibition (e.g. TAK-242) rescues from G-CSF driven injury and inflammation in preclinical models of ACLF.

[4] = system: THP1 monocytes; assay: THP1 response to LPS after G-CSF stimulation, monocytes; assay type: cell-based
Experimental: (§1) Densitometry was measured by using ImageJ and values are depicted as mean pixel density. After sample pooling no statistical comparison could be applied. H) Liver aSMA expression (CC14-LPS 24 hours treatment model) Liver sections were stained for aSMA (n=4 per group) as a marker of stellate cell activation. LPS increased the aSMA positive area from 1.4% ± 0.6 in CC14 animals to 8.6% ± 1.9 (p<0.001) and 9% ± 4.1 (p<0.001) when combined with G-CSF. […] Image J was used for image quantification and group comparison was performed by one-way ANOVA and post-hoc Tukey’s multiple comparison. I) THP1 response to LPS after G-CSF stimulation. THP1 were PMA activated into a macrophage like phenotype and stimulated with LPS (10 ng/mL) ± G-CSF (100 ng/mL) (2 batches in 2 replicates). Treatment was performed with TAK-242 200 nM in two of the groups. RNA extraction to measure cytokine response was performed 3-hr after LPS incubation. LPS induced an upregulation of IL-6 mRNA expression 60.2-fold in THP1 monocytes and 6.2-fold in macrophages which was enhanced by pre-incubation with G-CSF (monocytes 71-fold, macrophages 6.7-fold). TAK-242 reduced IL-6 mRNA expression compared to unstimulated cells to 5.1-fold in monocytes and 2.8-fold in macrophages resembling biological significance. […] G-CSF exaggerated the IL-1b expression 2.5-fold compared to unstimulated cells whereas it remained unchanged in macrophages (1.1-fold compared to unstimulated cells). TAK-242 decreased the IL-1b response in both cell lines (monocytes 1.3-fold and macrophages 0.7-fold compared to unstimulated cells). J) Proliferative effect of G-CSF after CC14. […] G-CSF (250 µg/kg, s.c.) was injected without previous LPS administration once daily for 5-days. Results were compared to groups administered LPS. […] Ki67 expression as a marker of hepatocyte division increased from 0.6% ± 0.2 after CC14 + LPS + G-CSF to 4.1% ± 2.9 (p<0.001) after CC14 + G-CSF. Image J was used for image quantification and group comparison was performed by one-way ANOVA and post-hoc Tukey’s multiple comparison.
(§2) Monocytes and macrophages are major source of cytokine release in liver disease. The inventors therefore tested in vitro, to what extent LPS and G-CSF modulate the cytokine response in PMA activated and native THP1 cells. […] These in vitro findings are in keeping with hepatic IL6 levels, which increased 2.8-fold in G-CSF-treated animals (FIG. 4D). […] The data help to explain the reduction in markers of organ injury in the ACLF animals treated with G-CSF/TAK-242.

[5] = system: PMA-activated THP1 macrophage-like cells; assay: THP1 response to LPS after G-CSF stimulation, PMA activated macrophages; assay type: cell-based
Experimental: as §1, §2

[6] = 48 hours treatment, value (range)
[7] = LPS +/- G-CSF, TAK-242 10 mg/kg i.p. twice for 24 h, 10 mg/kg
[8] = LPS 10 ng/mL ± G-CSF 100 ng/mL, TAK-242 200 nM, 3-hr after LPS, compared to unstimulated cells
[9] = LPS 10 ng/mL ± G-CSF 100 ng/mL, TAK-242 200 nM, compared to unstimulated cells
[10] = RIPA56 3 mg/kg i.p. every 12-hrs, n=3
[11] = RIPA56 3 mg/kg i.p. every 12-hrs, p<0.001 compared to CCl4 + GalN, 3 mg/kg

**Q.** Which results are given for CCOC(=O)C1=CCCC[C@H]1S(=O)(=O)Nc1ccc(F)cc1Cl [TAK-242, Ethyl (6R)-6-[N-(2-chloro-4-fluorophenyl)sulfamoyl]cyclohex-1-ene-1-carboxylate]?
**A.** Cyclin A2 (proliferating hepatocytes) ([1]; 48 hours treatment): 1.9% ± 1.6; Ki67 (proliferating hepatocytes) ([1]; 48 hours treatment): 3% ± 2.1; p21 (hepatocytes in cell cycle arrest) ([1]; 48 hours treatment): 7.1% ± 4.5; RIPK3 expression (necroptotic cell death) [1, 6]: 1.7% (range 0.9-2.1); liver cell death (TUNEL) [1, 6]: 1.4% (range 0.4-3.3); CyclinA2/TUNEL ratio ([1]; GalN 48-hr treatment): 0.9; degree of proliferating (Cyclin A2, Ki67) and senescent (p21) hepatocytes ([1]; mouse, in vivo): did not alter; also recorded: maintained; ALT levels ([2]; 10 mg/kg): improving plasma ALT levels; also recorded: significantly reduced; liver cell death (TUNEL) ([2]; recAP pre-treatment 1000 U/kg i.p. over 4 days): effective in reducing cell death in the liver; also recorded: significantly reduced; proliferating (Cyclin A positive) hepatocytes [3]: not proliferating; proliferating (Cyclin A positive) hepatocytes ([3]; listed as TAK242): did not enhance; CyclinA2/TUNEL ratio ([3]; CCl4-LPS 24-hr treatment model): 1.4; ALT levels [3, 7]: reduction in plasma ALT levels; also recorded: prevented; liver cell death (TUNEL) [3, 7]: reduction in liver cell death; also recorded: prevented; CDKN2A (p16) mRNA level ([3]; after LPS injection): decreased in a stepwise manner; stellate cells activation (aSMA expression) ([3]; after LPS injection): significantly abrogated; G-CSF-related death ([3]; mouse, in vivo): protected from G-CSF-related death; hepatic cytokine expression (mRNA) (IL6, TNFa) ([3]; mouse, in vivo): reduced; liver protein expression of vascular regeneration and regeneration markers (angiopoietin 2, proliferin, PDGF, IL-22, Flt3-ligand, IGFBP-1) ([3]; proteome profiler, pooled liver lysates, 24-hours): reduced; IL-6 mRNA expression [4, 8]: 5.1 fold; IL-1b expression [4, 9]: 1.3 fold; cytokine response to LPS alone or in combination with G-CSF ([4]; in the presence of TAK-242): completely prevented; IL-6 mRNA expression [5, 8]: 2.8 fold; IL-1b expression [5, 9]: 0.7 fold; cytokine response to LPS alone or in combination with G-CSF ([5]; in the presence of TAK-242): completely prevented

**Q.** How did the “Cyclin A2 (hepatocyte proliferation)” value [1, 10] turn out when CCC(C)(C)C(=O)N(O)Cc1ccccc1 [RIPA56] was run?
**A.** 0.03% ± 0.1

**Q.** And the “Ki67 (hepatocyte proliferation)” value [1, 10]?
**A.** 0.2% ± 0.2

**Q.** What about the “GalN-induced cell death (TUNEL)” value [1, 11] of the same compound?
**A.** effectively prevented; also recorded: reduced

**Q.** What about the RIPK3 expression [1, 11] of the same compound?
**A.** effectively prevented; also recorded: reduced
